Test results from ChEMBL document CHEMBL3885881, “DrugMatrix”.

Organism: Rattus norvegicus
Assay: DrugMatrix - Regimen: Daily Repeat
Type: toxicity, organism-based, Sprague-Dawley
Set-up: regimen Daily Repeat, gender Male, age 6-8 weeks
Details: in vivo, po, route oral GAVAGE, […]; for ABSOLUTE BASOPHIL / BASOPHIL / EOSINOPHIL / ERYTHROCYTE COUNT / HEMATOCRIT / HEMOGLOBIN / LEUKOCYTE COUNT / LYMPHOCYTE / MEAN CORPUSCULAR HEMOGLOBIN / MEAN CORPUSCULAR HEMOGLOBIN CONCENTRATION / MEAN CORPUSCULAR VOLUME / MONOCYTE / NEUTROPHIL / PLATELET COUNT: tissue Blood
[1] = 30 mg/kg, 120 h, tissue Plasma, dose level Low, time 5 day
[2] = 35 mg/kg, 72 h, dose level Low, time 3 day
[3] = 35 mg/kg, 72 h, tissue Plasma, dose level Low, time 3 day
[4] = 35 mg/kg, 120 h, dose level Low, time 5 day
[5] = 35 mg/kg, 120 h, tissue Plasma, dose level Low, time 5 day
[6] = 400 mg/kg, 72 h, dose level High, time 3 day
[7] = 400 mg/kg, 72 h, tissue Plasma, dose level High, time 3 day
[8] = 400 mg/kg, 120 h, dose level High, time 5 day
[9] = 400 mg/kg, 120 h, tissue Plasma, dose level High, time 5 day

For `Cc1ccc(-c2cc(C(F)(F)F)nn2-c2ccc(S(N)(=O)=O)cc2)cc1` [CELECOXIB], the ALBUMIN [1] was 3.93 G/DL, the “ALKALINE PHOSPHATASE” value [1] was 354.33 u/L and the “ASPARTATE AMINOTRANSFERASE” value [1] was 82.67 u/L. The “BLOOD UREA NITROGEN” value [1] was 10.67 mg/dL, the “CARBON DIOXIDE” value [1] was 25 mmol/L and the CHLORIDE [1] was 101 MEQ/L. For the same compound, the CHOLESTEROL [1] was 56.33 mg/dL, the “CREATINE PHOSPHOKINASE” value [1] was 247 u/L and the CREATININE [1] was 0.12 mg/dL. For the same compound, the GLUCOSE [1] was 191.67 mg/dL, the “LACTATE DEHYDROGENASE” value [1] was 107 u/L and the LIPASE [1] was 6.33 u/L. For the same compound, the PHOSPHORUS [1] was 12.27 mg/dL, the POTASSIUM [1] was 5.29 MEQ/L and the SODIUM [1] was 142.9 MEQ/L. The “TOTAL BILIRUBIN” value [1] was 0.2 mg/dL, the “TOTAL PROTEIN” value [1] was 5.8 G/DL and the “URIC ACID” value [1] was 1.67 mg/dL. For the same compound, the ABSOLUTE BASOPHIL [2] was 23.3 cells/µL, the BASOPHIL [2] was 0.2% and the EOSINOPHIL [2] was 0.57%. For the same compound, the “ERYTHROCYTE COUNT” value [2] was 6.93 x10E6/uL, the HEMATOCRIT [2] was 43.8% and the HEMOGLOBIN [2] was 14.23 G/DL. The “LEUKOCYTE COUNT” value [2] was 11.06 x10E3/uL, the LYMPHOCYTE [2] was 78.9% and the “MEAN CORPUSCULAR HEMOGLOBIN” value [2] was 20.57 pg. The “MEAN CORPUSCULAR HEMOGLOBIN CONCENTRATION” value [2] was 32.53 G/DL, the “MEAN CORPUSCULAR VOLUME” value [2] was 63.27 fL and the MONOCYTE [2] was 2.2%. For the same compound, the NEUTROPHIL [2] was 16.8%, the “PLATELET COUNT” value [2] was 1233.67 x10E3/uL and the “ALANINE AMINOTRANSFERASE” value [3] was 48 u/L. The ALBUMIN [3] was 3.53 G/DL, the “ALKALINE PHOSPHATASE” value [3] was 409.67 u/L and the “ASPARTATE AMINOTRANSFERASE” value [3] was 65 u/L. For the same compound, the “BLOOD UREA NITROGEN” value [3] was 10.33 mg/dL, the CHLORIDE [3] was 105.67 MEQ/L and the CHOLESTEROL [3] was 68.67 mg/dL. For the same compound, the “CREATINE PHOSPHOKINASE” value [3] was 192.67 u/L, the CREATININE [3] was 0.37 mg/dL and the GLUCOSE [3] was 180 mg/dL. The PHOSPHORUS [3] was 12.47 mg/dL, the POTASSIUM [3] was 6.47 MEQ/L and the SODIUM [3] was 146.67 MEQ/L. For the same compound, the “TOTAL BILIRUBIN” value [3] was 0.43 mg/dL, the “TOTAL PROTEIN” value [3] was 5.63 G/DL and the ABSOLUTE BASOPHIL [4] was 56.7 cells/µL. The BASOPHIL [4] was 0.5%, the EOSINOPHIL [4] was 0.17% and the “ERYTHROCYTE COUNT” value [4] was 6.92 x10E6/uL. For the same compound, the HEMATOCRIT [4] was 43.47%, the HEMOGLOBIN [4] was 14.1 G/DL and the “LEUKOCYTE COUNT” value [4] was 12.56 x10E3/uL. For the same compound, the LYMPHOCYTE [4] was 82.3%, the “MEAN CORPUSCULAR HEMOGLOBIN” value [4] was 20.4 pg and the “MEAN CORPUSCULAR HEMOGLOBIN CONCENTRATION” value [4] was 32.43 G/DL. The “MEAN CORPUSCULAR VOLUME” value [4] was 62.8 fL, the MONOCYTE [4] was 1.9% and the NEUTROPHIL [4] was 13.9%. For the same compound, the “PLATELET COUNT” value [4] was 1178.33 x10E3/uL, the “ALANINE AMINOTRANSFERASE” value [5] was 42 u/L and the ALBUMIN [5] was 3.57 G/DL. The “ALKALINE PHOSPHATASE” value [5] was 324.67 u/L, the “ASPARTATE AMINOTRANSFERASE” value [5] was 63.67 u/L and the “BLOOD UREA NITROGEN” value [5] was 9.67 mg/dL. For the same compound, the CHLORIDE [5] was 103 MEQ/L, the CHOLESTEROL [5] was 76.67 mg/dL and the “CREATINE PHOSPHOKINASE” value [5] was 179.33 u/L. For the same compound, the CREATININE [5] was 0.37 mg/dL, the GLUCOSE [5] was 187.33 mg/dL and the PHOSPHORUS [5] was 11.8 mg/dL. The POTASSIUM [5] was 6.73 MEQ/L, the SODIUM [5] was 146 MEQ/L and the “TOTAL BILIRUBIN” value [5] was 0.33 mg/dL. For the same compound, the “TOTAL PROTEIN” value [5] was 5.9 G/DL, the ABSOLUTE BASOPHIL [6] was 30 cells/µL and the BASOPHIL [6] was 0.27%. The EOSINOPHIL [6] was 0.6%, the “ERYTHROCYTE COUNT” value [6] was 6.71 x10E6/uL and the HEMATOCRIT [6] was 42.57%. The HEMOGLOBIN [6] was 14.27 G/DL, the “LEUKOCYTE COUNT” value [6] was 12.22 x10E3/uL and the LYMPHOCYTE [6] was 70.53%. For the same compound, the “MEAN CORPUSCULAR HEMOGLOBIN” value [6] was 21.27 pg, the “MEAN CORPUSCULAR HEMOGLOBIN CONCENTRATION” value [6] was 33.53 G/DL and the “MEAN CORPUSCULAR VOLUME” value [6] was 63.47 fL. The MONOCYTE [6] was 3.27%, the NEUTROPHIL [6] was 24.33% and the “PLATELET COUNT” value [6] was 1571.33 x10E3/uL. The “ALANINE AMINOTRANSFERASE” value [7] was 62 u/L, the ALBUMIN [7] was 3.4 G/DL and the “ALKALINE PHOSPHATASE” value [7] was 437.67 u/L. For the same compound, the “ASPARTATE AMINOTRANSFERASE” value [7] was 74.67 u/L, the “BLOOD UREA NITROGEN” value [7] was 9.33 mg/dL and the CHLORIDE [7] was 106.67 MEQ/L. For the same compound, the CHOLESTEROL [7] was 88.33 mg/dL, the “CREATINE PHOSPHOKINASE” value [7] was 191.67 u/L and the CREATININE [7] was 0.33 mg/dL. It also gave a GLUCOSE [7] of 177.33 mg/dL, a PHOSPHORUS [7] of 12.6 mg/dL and a POTASSIUM [7] of 6.63 MEQ/L. For the same compound, the SODIUM [7] was 145 MEQ/L, the “TOTAL BILIRUBIN” value [7] was 0.33 mg/dL and the “TOTAL PROTEIN” value [7] was 5.53 G/DL. It also gave an ABSOLUTE BASOPHIL [8] of 190 cells/µL, a BASOPHIL [8] of 1.28% and an EOSINOPHIL [8] of 0.3%. The “ERYTHROCYTE COUNT” value [8] was 6.61 x10E6/uL, the HEMATOCRIT [8] was 42.7% and the HEMOGLOBIN [8] was 13.26 G/DL. The “LEUKOCYTE COUNT” value [8] was 18.19 x10E3/uL, the LYMPHOCYTE [8] was 68.98% and the “MEAN CORPUSCULAR HEMOGLOBIN” value [8] was 20.16 pg. The “MEAN CORPUSCULAR HEMOGLOBIN CONCENTRATION” value [8] was 31.14 G/DL, the “MEAN CORPUSCULAR VOLUME” value [8] was 64.7 fL and the MONOCYTE [8] was 2.54%. The NEUTROPHIL [8] was 25.24%, the “PLATELET COUNT” value [8] was 1512.2 x10E3/uL and the “ALANINE AMINOTRANSFERASE” value [9] was 41.6 u/L. For the same compound, the ALBUMIN [9] was 3.44 G/DL, the “ALKALINE PHOSPHATASE” value [9] was 451.2 u/L and the “ASPARTATE AMINOTRANSFERASE” value [9] was 64.8 u/L. For the same compound, the “BLOOD UREA NITROGEN” value [9] was 11.2 mg/dL, the CHLORIDE [9] was 105.8 MEQ/L and the CHOLESTEROL [9] was 91.6 mg/dL. For the same compound, the “CREATINE PHOSPHOKINASE” value [9] was 166.4 u/L, the CREATININE [9] was 0.34 mg/dL and the GLUCOSE [9] was 185.8 mg/dL. It also gave a PHOSPHORUS [9] of 12.94 mg/dL, a POTASSIUM [9] of 7.1 MEQ/L and an SODIUM [9] of 151 MEQ/L. For the same compound, the “TOTAL BILIRUBIN” value [9] was 0.2 mg/dL and the “TOTAL PROTEIN” value [9] was 5.9 G/DL.
